# Measured values published in PubChem BioAssay AID328 (DTP/NCI, 2004).
# Several values for one entry are separate records, joined by “and”; a condition that tells them apart may be missing. Equal values may be shown once. Toxic doses and inconclusive results are not listed.
# System: BDF1 mice, P388 leukemia ip, median survival T/C
# Test: NCI In Vivo Anticancer Drug Screen. Data for tumor model P388 Leukemia (intraperitoneal) in B6D2F1 (BDF1) mice
# Conditions: endpoint: median survival time, higher = longer survival
# Outline: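 Reported as T/C, where T is the survival measurement in dosed animals and C the same measurement in vehicle controls.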
# [1] = dose: 50.0 mg/kg/injection, schedule: Q01DX009 (ip), vehicle: saline with Tween-80
# [2] = dose: 100.0 mg/kg/injection, schedule: Q04DX003 (ip), vehicle: saline with Tween-80
smiles,measurement,setting,value
CC(=O)OCC1OC(=O)C(C)N(C)C(=O)CN(C)C(=O)C2C(=O)CC(C)N2C(=O)C(C(C)C)NC(=O)C1NC(=O)c1c2nc3c(C(=O)NC4C(=O)NC(C(C)C)C(=O)N5C(C)CC(OC(C)=O)C5C(=O)N(C)CC(=O)N(C)C(C(C)C)C(=O)OC4C)ccc(C)c3oc-2c(C)c(=O)c1N (stereo not drawn),T/C,"dose: 0.05 mg/kg/injection, schedule: Q01DX009 (ip), vehicle: saline with Tween-80",154 % of control
same,T/C,"dose: 0.1 mg/kg/injection, schedule: Q01DX009 (ip), vehicle: saline with Tween-80",156 % of control
same,T/C,"dose: 0.2 mg/kg/injection, schedule: Q01DX009 (ip), vehicle: saline with Tween-80",189 % of control
same,T/C,"dose: 0.4 mg/kg/injection, schedule: Q01DX001 (ip), vehicle: saline with Tween-80",153 % of control
same,T/C,"dose: 0.4 mg/kg/injection, schedule: Q01DX009 (ip), vehicle: saline with Tween-80",213 % of control
same,T/C,"dose: 0.6 mg/kg/injection, schedule: Q04DX003 (ip), vehicle: saline with Tween-80",159 % of control
same,T/C,"dose: 0.8 mg/kg/injection, schedule: Q01DX001 (ip), vehicle: saline with Tween-80",159 % of control
same,T/C,"dose: 0.8 mg/kg/injection, schedule: Q01DX009 (ip), vehicle: saline with Tween-80",117 % of control
same,T/C,"dose: 1.2 mg/kg/injection, schedule: Q04DX003 (ip), vehicle: saline with Tween-80",189 % of control
same,T/C,"dose: 1.6 mg/kg/injection, schedule: Q01DX001 (ip), vehicle: saline with Tween-80",159 % of control
same,T/C,"dose: 2.4 mg/kg/injection, schedule: Q04DX003 (ip), vehicle: saline with Tween-80",117 % of control
same,T/C,"dose: 3.2 mg/kg/injection, schedule: Q01DX001 (ip), vehicle: saline with Tween-80",189 % of control
CCN1CC1,T/C,"dose: 3.12 mg/kg/injection, schedule: Q01DX001 (ip), vehicle: Klucel (hydroxypropylcellulose) (HPC)",113 % of control
same,T/C,"dose: 6.25 mg/kg/injection, schedule: Q01DX001 (ip), vehicle: Klucel (hydroxypropylcellulose) (HPC)",118 % of control
same,T/C,"dose: 6.25 mg/kg/injection, schedule: Q01DX009 (ip), vehicle: Klucel (hydroxypropylcellulose) (HPC)",90 % of control
same,T/C,"dose: 12.5 mg/kg/injection, schedule: Q01DX001 (ip), vehicle: Klucel (hydroxypropylcellulose) (HPC)",86 % of control
same,T/C,"dose: 12.5 mg/kg/injection, schedule: Q01DX009 (ip), vehicle: Klucel (hydroxypropylcellulose) (HPC)",86 % of control
C/C(c1nc(N)nc(N)c1-c1ccc(Cl)cc1)=[N+](\C)[O-],T/C,"dose: 100.0 mg/kg/injection, schedule: Q01DX001 (ip), vehicle: saline with Tween-80",95 % of control
same,T/C,"dose: 200.0 mg/kg/injection, schedule: Q01DX001 (ip), vehicle: saline with Tween-80",104 % of control
same,T/C,"dose: 400.0 mg/kg/injection, schedule: Q01DX001 (ip), vehicle: saline with Tween-80",97 % of control
CC1(C)C2CCC1(C)C1OC(=O)NN=C21 (stereo not drawn),T/C,"dose: 12.5 mg/kg/injection, schedule: Q01DX001 (ip), vehicle: saline with Tween-80",100 % of control
same,T/C,"dose: 25.0 mg/kg/injection, schedule: Q01DX001 (ip), vehicle: saline with Tween-80",98 % of control
same,T/C,"dose: 50.0 mg/kg/injection, schedule: Q01DX001 (ip), vehicle: saline with Tween-80",103 % of control
COC(=O)C12OCC34C(CC5=C(C)C(=O)C(O)=CC5(C)C3C(O)C1O)OC(=O)C(OC(=O)/C=C(\C)C(C)C)C24 (stereo not drawn),T/C,"dose: 31.0 micrograms/kg/injection, schedule: Q01DX009 (ip), vehicle: saline + alcohol",120 % of control
same,T/C,"dose: 62.0 micrograms/kg/injection, schedule: Q01DX009 (ip), vehicle: saline + alcohol",115 % of control
same,T/C,"dose: 250.0 micrograms/kg/injection, schedule: Q01DX009 (ip), vehicle: saline + alcohol",100 % of control
same,T/C,"dose: 500.0 micrograms/kg/injection, schedule: Q01DX009 (ip), vehicle: saline + alcohol",105 % of control
same,T/C,"dose: 1000.0 micrograms/kg/injection, schedule: Q01DX009 (ip), vehicle: saline + alcohol",120 % of control
same,T/C,"dose: 2000.0 micrograms/kg/injection, schedule: Q01DX009 (ip), vehicle: saline + alcohol",110 % of control
O=C(/C(=N/Nc1ccccc1)c1ccccc1)c1ccccc1,T/C,"dose: 100.0 mg/kg/injection, schedule: Q04DX003 (ip), vehicle: Klucel (hydroxypropylcellulose) (HPC)",104 % of control
same,T/C,"dose: 200.0 mg/kg/injection, schedule: Q04DX003 (ip), vehicle: Klucel (hydroxypropylcellulose) (HPC)",100 % of control
same,T/C,"dose: 400.0 mg/kg/injection, schedule: Q04DX003 (ip), vehicle: Klucel (hydroxypropylcellulose) (HPC)",113 % of control
O=C1OC(c2ccccc2)=N/C1=C/c1cccs1,T/C,"dose: 100.0 mg/kg/injection, schedule: Q01DX009 (ip), vehicle: Klucel (hydroxypropylcellulose) (HPC)",96 % of control
same,T/C,"dose: 200.0 mg/kg/injection, schedule: Q01DX009 (ip), vehicle: Klucel (hydroxypropylcellulose) (HPC)",88 % of control
same,T/C,"dose: 400.0 mg/kg/injection, schedule: Q01DX009 (ip), vehicle: Klucel (hydroxypropylcellulose) (HPC)",92 % of control
O=[N+]([O-])/C=C/c1ccc(O)cc1,T/C,"dose: 6.25 mg/kg/injection, schedule: Q01DX009 (ip), vehicle: saline with Tween-80",100 % of control
same,T/C,"dose: 12.5 mg/kg/injection, schedule: Q01DX009 (ip), vehicle: saline with Tween-80",102 % of control
same,T/C,"dose: 25.0 mg/kg/injection, schedule: Q01DX009 (ip), vehicle: saline with Tween-80",110 % of control
same,T/C,[1],107 % of control
CCSc1ncc(Br)c(Sc2nc(N)nc3nc[nH]c23)n1,T/C,[2],86 % of control
COC(=O)Nc1nc2ccc(C(=O)c3ccccc3)cc2[nH]1,T/C,"dose: 10.0 mg/kg/injection, schedule: Q04DX003 (ip), vehicle: other",106 % of control
same,T/C,"dose: 30.0 mg/kg/injection, schedule: Q04DX003 (ip), vehicle: saline with Tween-80",173 % of control
same,T/C,"dose: 35.0 mg/kg/injection, schedule: Q04DX003 (ip), vehicle: saline with Tween-80",178 % of control
O=C1Cc2cc(=C(c3ccccc3)c3ccccc3)ccc2=C1c1ccccc1,T/C,"dose: 50.0 mg/kg/injection, schedule: Q01DX005 (ip), vehicle: saline with Tween-80",93 % of control
same,T/C,"dose: 100.0 mg/kg/injection, schedule: Q01DX005 (ip), vehicle: saline with Tween-80",96 % of control
same,T/C,"dose: 200.0 mg/kg/injection, schedule: Q01DX005 (ip), vehicle: saline with Tween-80",91 % of control
CC1CCCC/C1=N/NC(=O)c1ccccc1 (stereo not drawn),T/C,[1],87 % of control
same,T/C,"dose: 100.0 mg/kg/injection, schedule: Q01DX009 (ip), vehicle: saline with Tween-80",91 % of control
same,T/C,[2],95 % of control
Cc1ccc(NC(=O)OCCSC(=O)COc2ccc(Cl)cc2Cl)cc1,T/C,[2],100 % of control
same,T/C,"dose: 200.0 mg/kg/injection, schedule: Q04DX003 (ip), vehicle: saline with Tween-80",100 % of control
same,T/C,"dose: 400.0 mg/kg/injection, schedule: Q04DX003 (ip), vehicle: saline with Tween-80",104 % of control
O=C(Nc1ccc(NC(=O)c2ccc(C3=NCCCN3)cc2)cc1)Nc1ccc(C2=NCCCN2)cc1,T/C,"dose: 2.5 mg/kg/injection, schedule: Q01DX009 (ip), vehicle: saline with Tween-80",113 % of control
same,T/C,"dose: 5.0 mg/kg/injection, schedule: Q01DX009 (ip), vehicle: saline with Tween-80",168 % of control
same,T/C,"dose: 5.0 mg/kg/injection, schedule: Q04DX003 (ip), vehicle: saline with Tween-80",109 % of control
same,T/C,"dose: 6.6 mg/kg/injection, schedule: Q01DX009 (ip), vehicle: saline with Tween-80",175 % of control
same,T/C,"dose: 10.0 mg/kg/injection, schedule: Q01DX009 (ip), vehicle: saline with Tween-80",233 % of control and 204 % of control
same,T/C,"dose: 10.0 mg/kg/injection, schedule: Q04DX003 (ip), vehicle: saline with Tween-80",109 % of control
same,T/C,"dose: 15.0 mg/kg/injection, schedule: Q01DX009 (ip), vehicle: saline with Tween-80",233 % of control
COc1ccc(Nc2cccc(Cl)c2)c(C(=O)O)c1,T/C,"dose: 20.0 mg/kg/injection, schedule: Q01DX001 (ip), vehicle: Klucel (hydroxypropylcellulose) (HPC)",122 % of control
same,T/C,"dose: 40.0 mg/kg/injection, schedule: Q01DX001 (ip), vehicle: Klucel (hydroxypropylcellulose) (HPC)",100 % of control
same,T/C,"dose: 75.0 mg/kg/injection, schedule: Q01DX001 (ip), vehicle: Klucel (hydroxypropylcellulose) (HPC)",104 % of control
same,T/C,"dose: 150.0 mg/kg/injection, schedule: Q01DX001 (ip), vehicle: Klucel (hydroxypropylcellulose) (HPC)",100 % of control
COc1cc2c(cc1OCc1ccccc1)C=CN(C(=O)c1ccccc1)C2C#N (stereo not drawn),T/C,"dose: 25.0 mg/kg/injection, schedule: Q01DX009 (ip), vehicle: saline",105 % of control
same,T/C,"dose: 25.0 mg/kg/injection, schedule: Q04DX003 (ip), vehicle: saline",103 % of control
same,T/C,"dose: 50.0 mg/kg/injection, schedule: Q01DX009 (ip), vehicle: saline",92 % of control
same,T/C,"dose: 50.0 mg/kg/injection, schedule: Q04DX003 (ip), vehicle: saline",100 % of control
same,T/C,"dose: 100.0 mg/kg/injection, schedule: Q01DX009 (ip), vehicle: saline",93 % of control
same,T/C,"dose: 100.0 mg/kg/injection, schedule: Q04DX003 (ip), vehicle: saline",97 % of control
same,T/C,"dose: 200.0 mg/kg/injection, schedule: Q01DX009 (ip), vehicle: saline",90 % of control
same,T/C,"dose: 200.0 mg/kg/injection, schedule: Q04DX003 (ip), vehicle: saline",103 % of control
same,T/C,"dose: 400.0 mg/kg/injection, schedule: Q01DX009 (ip), vehicle: saline",96 % of control
same,T/C,"dose: 400.0 mg/kg/injection, schedule: Q04DX003 (ip), vehicle: saline",97 % of control
